≈ marks a conversion by molar mass, not a printed value.
Legend:
human NOD2 = biological target: T1, human NOD2 (Homo sapiens, UniProt Q9HC29); experiment: NOD2 specific reporter assay (SEAP, Quanti blue); type: cell-based; conditions: HEK-Blue Human NOD2 reporter cells, 24-72 hrs, read-out: EC50 (half maximal response) (converted)
T1 construct: host or cells: HEK-Blue Human NOD2 reporter cells (HEK 293)
Protocol: Muramyl dipeptide molecules have the ability to bind to NOD2 receptors that are present on the surface of the immune cells, so as to stimulate immune response. NOD2 (Nucleotide oligomerization domain) receptor is an intracellular pattern recognition receptor (PRRs) recognizes muramyl dipeptide derivatives and stimulates cascade of signaling pathways to induce immune response. […] These cells were prepared by co-transfection of human NOD2 gene and codon-optimized SEAP (secreted embryonic alkaline phosphatase) reporter gene into HEK 293 cells. Upon stimulation of cells with muramyl dipeptide derivative, NFkB gets activated, which inturn secrets SEAP and it was measured in cell supernatant. Experimental details of this in-vitro assay are given as example 2.1.
HEK—Blue Human NOD2 reporter cells (5×10^4/well) were plated and cultured overnight in a humidified CO2 incubator at 37° C. Next day, cells were treated with various concentrations of MDP-ET, (0.001 mg/ml to 1 mg/ml) and cultured for 24-72 hrs. Supernatant was collected and treated with Quanti blue detection reagent at 37° C. for 15-30 min. Absorbance was read at 630 nm. […] To generate dose response curve, highest absorbance shown at tested concentration was taken as 100% response and the least absorbance was taken as 0% response. […]

J774.2A cells = experiment: Cytotoxicity assay (MTT); type: cell-based; conditions: 24 hrs, read-out: IC50 (50% cell death or toxicity)
Protocol: Details of an assay are as explained in example 2.2.
J774.2A cells (2×10^4/well) were plated and incubated overnight. Next day, cells were treated with various concentrations of MDP-ET (10 fold dilutions with a concentration ranging from 0.005 mg/ml to 0.5 mg/ml & 2 mg/ml) and cultured for 24 hrs. Supernatant was discarded and cells were treated with 100 μl of MTT [3-(4,5-Dimethylthiazol-2-yl)-2,5-Diphenyltetrazolium Bromide] (5 mg/ml) and incubated for 3-4 hrs until formozan crystals were formed. Later, supernatant was discarded and crystals were dissolved with DMSO for 5-10 min. Absorbance was read at 540 nm. FIG. 2 represents cell toxicity effect of MDP-ET. X-axis represents concentration in log scale and Y-axis represents % toxicity.

splenocytes = experiment: Splenocyte proliferation of immunized mice (MTT); type: in vivo; conditions: LPS and Con A
Protocol: Spleens were isolated from immunized mice and were processed to single cell suspension. 96 well flat bottom Micro titer plates were seeded with 1×10^5 cells/well with RPMI1640 media. Cells were treated with OVA. Con A (2 μg/mL) and LPS (10 μg/mL) or medium with a final volume of 200 μl. Plates were incubated at 37° C. with 5% CO2 in an incubator. After 48 h of incubation 20 μl of Triazolyl blue Tetrazolium Bromide (MTT) solution was added to each well, incubated for next 4 h. Untransformed MTT was removed from each well by aspirating the supernatant (180 μL) and replaced with DMSO. The absorbance was read at 570 nm after 15 min.
Immunostimulating substances act through specific (antigen-dependent) T lymphocytes, B lymphocytes, and dendritic cells and also through non-specific mechanisms of action (antigen-independent) that involves granulocytes, macrophages, and NK cells. Being a secondary lymphoid organ, spleen contains a heterogeneous population of lymphocytes to examine the immunostimulant activity. However, proliferations of immune cells like T and B cells are the benchmark for immune potentiation. Mice were immunized with or without OVA or in combination with MDP and MDP-ET. Type of immune response in all treated groups was measured with LPS and Con-A splenocyte proliferation assays depicted in Figure: 3. […] This is essential for B cell expansion.

[1] = tested on: Total IgG1 and IgG2a antibodies; experiment: Total IgG1 and IgG2a in sera of OVA-immunized mice (sandwich ELISA); type: in vivo, BALB/c mice
Protocol: Male BALB/c mice were immunized subcutaneously with OVA 100 μg alone or with OVA 100 μg dissolved in saline containing the MDP or MDP-ET analogues (7.5, 15 or 30 μg) on Days 1 and 15. Sera were collected 2 weeks after the last immunization. Total IgG1 and IgG2a antibodies in the sera were measured by Sandwich ELISA.
Measurement of total IgG subtypes such as IgG1 and IgG2a are useful to assess type immunity produced. In mice, IgG1 is integrated with Th2-type response, while Th1-type response is integrated with the production of IgG2a, IgG2b, and IgG3 antibodies. Antibody subclass is indispensable for complement fixation and provides protection. IgG2a and IgG2b can fix the complement stronger than IgG1. Vaccine adjuvants showing broad subclass distribution is beneficial against pathogens. […] But, it didn't induce much significant IgG1 response i.e., Th2 type, than MDP+OVA group.

[2] = tested on: HBsAg specific IgG antibody; experiment: Endpoint titer of HBsAg specific total IgG by ELISA after immunization; type: in vivo, BALB/c mice; conditions: for HBsAg specific IgG antibody endpoint titer: i.m. Day 0 & 28, Day 42 sera
Protocol: Female BALB/c mice (6-8 week old, n=6/group) were vaccinated intramuscularly (i.m, at two quadriceps) on Day 0 & Day 28 with vehicle control or Hepatitis B antigen (20 μg/mouse/dose/100 μl, 50 μl per quadricep) with and without MDP-ET (10 μg or 50 μg/mouse/dose/100 μl) diluted in Phosphate buffered saline. Prior to immunization, Hepatitis B surface antigen was mixed with MDP-ET, by gentle agitation (1:1 ratio), under sterile conditions. Mice were bled and euthanized on Day 42. Blood was collected & serum was isolated to evaluate analyze antigen specific total IgG antibody titer (as in example 3.1.2) and antibody subclasses (isotypes namely IgG1 or IgG2a or IgG3, as in example 3.1.3).
Serial dilutions of individual serum samples ([…] ranging from 1:50 to 819200) were used to determine the endpoint titer of antigen specific total IgG antibody titer by ELISA. Details of assay protocol as described below, For analysis of antigen specific antibody titer, hepatitis B surface antigen was suspended in 50 mM carbonate bicarbonate buffer, pH 9.6 and coated at a concentration (lug/ml, 100 μl/well) in 96 well plates and kept at 4° C. for overnight. Next day, plates were washed with washing buffer (PBST-Phosphate buffered saline, pH 7.4 with 0.05% Tween) and blocked with blocking buffer (PBS with 1% BSA) at RT for 1-2 hr. ELISA plates were washed again with wash buffer (PBS, 0.1% Tween™20) and added serially diluted (in PBS, 0.1% BSA, 0.05% Tween™20, 0.02% sodium azide) sera from hyper immunized mice and incubated at RT for 1 hr. After incubation, wells were again washed and added Goat Anti-mouse IgG HRP conjugate antibody at a dilution of 1:5000 & incubated for 1 hr at RT. Later, wells were washed, and developed with OPD (O-phenylene diamine) as a substrate for 15 min. Reaction was stopped using 2N H2SO4. Absorbance was read at 490 nm. Threshold (Mean+3SD) was established by taking the absorbance of negative control (PBS) group, followed by the reactive index (ratio of absorbance at a particular dilution & threshold), so as to determine end point titer. Based on this calculation, highest dilution at which reactive index value[…] was considered as endpoint antibody titer dilution. Antigen specific antibody endpoint titer in the presence & absence of MDP-ET was represented as in FIG. 5a.

[3] = tested on: rPvRII specific IgG antibody; experiment: Endpoint titer of rPvRII specific IgG by ELISA after immunization; type: in vivo, mouse
[4] = tested on: IgG isotypes (IgG1, IgG2a & IgG3) raised against HBsAg; experiment: TH1:TH2 index from HBsAg specific IgG isotypes; type: in vivo, BALB/c mice; conditions: HBsAg in the presence of MDP-ET (10 & 50 μg/mouse)
Text: It is known that IgG subclasses produced after the immunization against given antigen, primarily determines the function of the antibody or indirectly measures the relative contribution of TH1 versus TH2 type cytokine induction. More specifically, production of IgG1 antibodies induces TH2 type cytokines, whereas production of IgG2a & IgG3 antibodies induces TH1 type cytokines. […] In this context, in the present invention, we determined the levels of IgG isotypes (IgG1, IgG2a & IgG3), raised against HBsAg in the presence or absence of MDP-ET (at 10 μg/mouse & 50 μg/mouse) and calculated TH1:TH2 index then calculated as ([IgG2a+IgG3]/2)/(IgG1). Details of assay protocol as described below as in example 3.1.3. According to such calculation, an index value less than 1 stands for a TH2 polarization; an index value greater than 1 stands for a TH1 polarization.
Analysis of antigen specific IgG antibody subclasses (isotypes namely IgG1 or IgG2a or IgG3) was performed as mentioned in example 3.1.2, except at one step, where goat anti-mouse IgG1 or IgG2a or IgG3 HRP was used at a dilution of 1:5000 (in place of goat anti-mouse IgG) TH1:TH2 index obtained at 10 & 50 μg/mouse of MDP-ET is as shown in FIG. 5c.

Wistar rats = experiment: Maximum Tolerated Dose test; type: in vivo
Protocol: This particular beneficial property was evidenced by Maximum Tolerated Dose test done using rat as an animal model.
Maximum Tolerated Dose test: Wistar rats (n=6, 3M & 3F) were administered intramuscularly (i.m) with MDP-ET containing fixed adjuvant dose of 10, 50 and 100 μg/animal/200 μl in an ascending manner. Animals were observed daily for a period of 14 days for clinical signs & mortality. Body weight was measured daily. Food and water consumed by animals were also monitored daily for any abnormalities & food and water intake per animal was also calculated. Body temperature was measured for every 4 hours up to 24 hrs, later once in daily up to 7 days and then followed by alternate day up to day 14. Rats were sacrificed on day 14 and organs/tissues such as site of injection, spleen, thymus, brain, lungs, Heart, liver, Kidney were collected and done macroscopic examination. […] It indicates rats are tolerable even at high dose (100 μg/animal). Blood was collected between 24-36 hrs were tested for CRP levels, after the injection. Higher (600-1000 μg/ml, normal range 200-550 μg/ml in rats) CRP levels were found at higher dose (100 μg/animal).
However, due to moderate or high levels of IL-6 levels as found in In-vitro pyrogenicity test, it can be concluded that MDP-ET may be pyrogenic at tested high concentration (100 μg/animal), which in turn correlated with high levels of CRP found immediately after giving dose.

[5] = tested on: OVA-specific IgG antibodies; experiment: OVA-specific IgG in sera of immunized mice (indirect ELISA); type: in vivo, BALB/c mice; conditions: OVA 100 μg alone, s.c. Days 1 and 15, sera 2 weeks after last immunization
Protocol: Male BALB/c mice were immunized subcutaneously with OVA 100 μg alone or with OVA 100 μg dissolved in saline containing analogues (7.5, 15 or 30 μg) on Days 1 and 15. Sera were collected 2 weeks after the last immunization. OVA-specific IgG antibodies in the sera were measured by an Indirect ELISA.

T1 sequence (Q9HC29 whole entry): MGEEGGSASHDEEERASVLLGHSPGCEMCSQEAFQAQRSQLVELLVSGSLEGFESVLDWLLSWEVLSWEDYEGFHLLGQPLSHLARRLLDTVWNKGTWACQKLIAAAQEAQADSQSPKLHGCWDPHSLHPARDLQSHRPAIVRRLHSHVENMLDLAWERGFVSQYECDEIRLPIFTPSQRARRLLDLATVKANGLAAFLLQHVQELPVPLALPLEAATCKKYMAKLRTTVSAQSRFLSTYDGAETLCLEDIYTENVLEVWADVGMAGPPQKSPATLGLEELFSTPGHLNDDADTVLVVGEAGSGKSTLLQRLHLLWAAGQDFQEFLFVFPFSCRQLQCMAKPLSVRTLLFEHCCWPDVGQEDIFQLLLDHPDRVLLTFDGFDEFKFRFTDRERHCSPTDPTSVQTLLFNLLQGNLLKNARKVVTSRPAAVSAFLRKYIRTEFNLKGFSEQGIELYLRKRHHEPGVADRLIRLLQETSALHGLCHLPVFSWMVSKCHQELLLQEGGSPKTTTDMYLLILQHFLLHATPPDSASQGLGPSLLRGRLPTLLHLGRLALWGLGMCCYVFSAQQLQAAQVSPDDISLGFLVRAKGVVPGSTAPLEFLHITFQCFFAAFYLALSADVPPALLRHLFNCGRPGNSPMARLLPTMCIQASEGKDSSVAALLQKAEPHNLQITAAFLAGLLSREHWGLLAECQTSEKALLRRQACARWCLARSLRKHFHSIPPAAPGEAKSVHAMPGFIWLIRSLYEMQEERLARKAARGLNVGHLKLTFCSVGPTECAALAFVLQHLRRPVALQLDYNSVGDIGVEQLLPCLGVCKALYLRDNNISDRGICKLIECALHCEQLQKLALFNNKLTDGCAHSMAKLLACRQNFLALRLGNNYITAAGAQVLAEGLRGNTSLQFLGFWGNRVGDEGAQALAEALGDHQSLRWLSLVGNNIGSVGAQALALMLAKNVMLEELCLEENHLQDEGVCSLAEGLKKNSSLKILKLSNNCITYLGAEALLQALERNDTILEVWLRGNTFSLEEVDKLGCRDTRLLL

Molecule: CCOC(=O)N[C@H]1C(O)O[C@H](CO)[C@@H](O)[C@@H]1O[C@H](C)C(=O)N[C@@H](C)C(=O)N[C@H](CCC(=O)O)C(N)=O (stereo partly drawn) [MDP-ET, (4R)-5-amino-4-((2S)-2-((2R)-2-(((3R,4R,5S,6R)-3-((ethoxycarbonyl)amino)-2,5-dihydroxy-6-(hydroxymethyl)tetrahydro-2H-pyran-4-yl)oxy)propanamido)propanamido)-5-oxopentanoic acid]
- EC50 (human NOD2): 421 nM
- IC50 (J774.2A cells): 410 µg/mL (≈ 785 µM)
- Splenocyte proliferation (splenocytes): inducing the LPS mediated splenocyte proliferation
- Th1:Th2 index from antibody titer of ova specific IgG subclasses ([1]; OVA-immunized mice): 1
- increase of HBsAg specific IgG antibody titer versus HBsAg alone ([2]; MDP-ET 10 μg/mouse): 4 fold
- HBsAg specific IgG antibody endpoint titer ([2]; MDP-ET 10 μg/mouse + HBsAg 20 μg): 51200 dilution
- increase of HBsAg specific IgG antibody titer versus HBsAg alone ([2]; MDP-ET 50 μg/mouse): 8 fold
- HBsAg specific IgG antibody endpoint titer ([2]; MDP-ET 50 μg/mouse + HBsAg 20 μg): 204800 dilution
- increase of humoral response (TH2), dose dependent ([2]; mice vaccinated with HBsAg in the presence of MDP-ET (10 and 50 μg/mouse)): 4-8 fold
- increase of rPvRII specific IgG antibody titer versus rPvRII alone ([3]; MDP-ET 10 μg/mouse): 4 fold
- rPvRII specific IgG antibody endpoint titer ([3]; MDP-ET 10 μg/mouse + rPvRII): 51200 dilution
- TH1:TH2 index ([IgG2a+IgG3]/2)/(IgG1) [4]: 10
- CRP levels (Wistar rats; 100 μg/animal, blood 24-36 hrs after injection, normal range 200-550 μg/ml in rats): 600 to 1000 µg/mL
- tolerated dose (Wistar rats; Wistar rats, i.m., 14 days observation): ≥ 100 μg/rat
- CRP levels (Wistar rats; after 14 days): normal
- macroscopic examination of organs/tissues (Wistar rats; day 14, site of injection, spleen, thymus, brain, lungs, heart, liver, kidney): No significant lesions or abnormalities
- clinical signs (Wistar rats; even at tested high dose (100 μg/animal), 14 days): no significant clinical signs
- weight gain (Wistar rats; high dose (100 μg/animal), compared to untreated animals): weight gain is less
- mortality (Wistar rats; i.m. 10, 50 and 100 μg/animal, 14 days): no mortality
- body temperature (Wistar rats; up to 14 days): no temperature raise

B1: OVA: Ovalbumin (OVA) antigen, given alone (protein, UniProt P01012 2-386, looked up)
Ovalbumin: GSIGAASMEFCFDVFKELKVHHANENIFYCPIAIMSALAMVYLGAKDSTRTQINKVVRFDKLPGFGDSIEAQCGTSVNVHSSLRDILNQITKPNDVYSFSLASRLYAEERYPILPEYLQCVKELYRGGLEPINFQTAADQARELINSWVESQTNGIIRNVLQPSSVDSQTAMVLVNAIVFKGLWEKAFKDEDTQAMPFRVTEQESKPVQMMYQIGLFRVASMASEKMKILELPFASGTMSMLVLLPDEVSGLEQLESIINFEKLTEWTSSNVMEERKIKVYLPRMKMEEKYNLTSVLMAMGITDVFSSSANLSGISSAESLKISQAVHAAHAEINEAGREVVGSAEAGVDAASVSEEFRADHPFLFCIKHIATNAVLFFGRCVSP
- Log(2) IgG Antibody Titre [5]: 12.64
- Log(2) Total IgG1 Antibody Titre ([1]; OVA 100 μg alone): 14.39
- Log(2) Total IgG2a Antibody Titre ([1]; OVA 100 μg alone): 11.89

From US12134664B2, “Muramyl peptide derivatives” (Bharat Biotech International Limited, priority 2015, dated 2024)
